This note sets out measurements from publication PMC2171590 (The Journal of Cell Biology, 2005).

For experiment [1], the target named is Arp2/3 complex (yeast) (Saccharomyces cerevisiae, UniProt P32381+P47117). Kind of experiment: fluorescence increase titration, one-site fit. It is filed as binding.
In experiment [2] the target is Arp2/3 complex (yeast) (Saccharomyces cerevisiae, UniProt P32381+P47117, P47117:G358Y). Kind of experiment: fluorescence increase titration, one-site fit. It is filed as binding.
The target in experiment [3] is Arp2/3 complex (yeast) (Saccharomyces cerevisiae, UniProt P32381+P47117, P47117:D12A). Description: fluorescence increase titration, one-site fit. In kind it is binding.
Experiment [4] has as its target Arp2/3 complex (yeast) (Saccharomyces cerevisiae, UniProt P32381+P47117, P47117:F362A). Description: fluorescence increase titration, one-site fit. In kind it is binding.
Experiment [5] has as its target Arp2/3 complex (yeast) (Saccharomyces cerevisiae, UniProt P32381+P47117, P32381:Y309A). Kind of experiment: fluorescence increase titration, one-site fit. In kind it is binding.
For experiment [6], the target named is Arp2/3 complex (yeast) (Saccharomyces cerevisiae, UniProt P32381+P47117, P32381:G305Y). Kind of experiment: fluorescence increase titration, one-site fit. It is filed as binding.
The target in experiment [7] is Arp2/3 complex (yeast) (Saccharomyces cerevisiae, UniProt P32381+P47117, P32381:D10A). Kind of experiment: fluorescence increase titration, one-site fit. It is filed as binding.
Experiment [8] concerns the target GST-tagged Las17WCA (S. cerevisiae). Kind of experiment: pull-down.

Sequence of GST-tagged Las17WCA (S. cerevisiae) (Q12446 whole entry): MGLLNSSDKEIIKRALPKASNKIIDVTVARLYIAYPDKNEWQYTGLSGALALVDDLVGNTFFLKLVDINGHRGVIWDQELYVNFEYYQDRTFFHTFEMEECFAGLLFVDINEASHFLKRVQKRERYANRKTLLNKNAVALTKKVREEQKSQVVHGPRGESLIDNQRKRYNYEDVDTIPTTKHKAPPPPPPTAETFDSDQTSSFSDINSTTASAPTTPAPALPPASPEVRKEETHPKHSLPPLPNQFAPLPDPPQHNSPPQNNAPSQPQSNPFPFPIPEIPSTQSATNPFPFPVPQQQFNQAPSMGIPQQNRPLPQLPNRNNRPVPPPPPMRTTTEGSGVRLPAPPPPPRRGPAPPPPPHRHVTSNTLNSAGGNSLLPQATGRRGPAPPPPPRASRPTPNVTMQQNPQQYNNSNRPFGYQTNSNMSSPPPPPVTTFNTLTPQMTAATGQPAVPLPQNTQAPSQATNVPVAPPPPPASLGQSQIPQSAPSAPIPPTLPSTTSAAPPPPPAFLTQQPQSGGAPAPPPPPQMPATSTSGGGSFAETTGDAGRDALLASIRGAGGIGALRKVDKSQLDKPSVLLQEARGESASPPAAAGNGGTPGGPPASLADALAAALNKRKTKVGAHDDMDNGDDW

In the case of `O=P(O)(O)OP(=O)(O)OP(=O)(O)OC[C@H]1O[C@@H](n2cnc3c2ncn2ccnc32)[C@H](O)[C@@H]1O` [etheno-ATP], the Kd is 2.3 ± 0.1 µM at Arp2/3 complex (yeast) [1]; 22 ± 4.4 µM on Arp2/3 complex (yeast) [2]; 34.5 ± 2.2 µM at Arp2/3 complex (yeast) [3]; 16.7 ± 4.2 µM on Arp2/3 complex (yeast) [4]; 2.4 ± 0.2 µM on Arp2/3 complex (yeast) [5]; 1.8 ± 0.1 µM at Arp2/3 complex (yeast) [6]. In addition, the affinity on Arp2/3 complex (yeast) [7], expressed as Kd, was 2 ± 0.1 µM.
On to “arp2-G302Y Arp2/3 complex (from UniProt P47117 1-449; P38328 1-384; Q05933 1-178; P40518 1-154)”, for which the Kd in experiment [8] amounted to 3.9 µM.
In experiment [8], “arp3-G302Y Arp2/3 complex (from UniProt P32381 1-391; P38328 1-384; Q05933 1-178; P40518 1-154)” came in with a Kd of 4.5 µM.
On to “wild-type yeast Arp2/3 complex (from UniProt P32381 1-391; P47117 1-449; P38328 1-384; Q05933 1-178; P40518 1-154)”, for which the Kd in experiment [8] was 4.5 µM.

One may read the Kd as the equilibrium constant for the complex coming apart. Low values mean higher affinity, high ones lower affinity.
